The subject of one series is CYP1A1 mRNA. Put plainly: CYP1A1 mRNA assay in HepG2 cells (RT-PCR). Format: cell-based, human. Particulars: 24 h incubation, 10 uM, normalized to 18S rRNA. On the procedure: HepG2 cells (American Type Culture Collection (ATCC), Manassas, Va.) were cultured using Eagle's minimal essential medium (ATCC), supplemented with 10% fetal calf serum (Invitrogen Life Technologies). […] Cells were plated at a seeding density of 3.8×10^5 cells per well on 6-well plates (Corning Costar, NY, U.S.A.). Cells were allowed to attach for 24 h in a 37° C. humidified incubator with a 5% CO2 atmosphere. Media was replaced with that containing test agents or vehicle (0.1% dimethylsulphoxide) and cells incubated for a further 24 h. Following the 24 h incubation with test agents, media was removed and RNA prepared using the Purelink RNA mini kit (ThermoFischer, Carlsbad, Calif.). Nucleic acid concentration was determined using a Nanodrop™ spectrophotometer (ThermoScientific) by measuring the OD at 260 nm and RNA purity was evaluated using the OD 260/280 nm ratio. 1 μg RNA was reverse transcribed using SuperScript®VILO™ (ThermoFischer) with cDNA synthesis performed using the following parameters: 10 min at 25° C., 2 h at 42° C., 5 min at 85° C. (deactivation) followed by a completion temperature of 4° C. […] Each sample (1 μl) was pipetted into a 96-well optical reaction plate (Applied Biosystems, Carlsbad, Calif.). […] Results were analyzed by calculating the fold change of CYP1A1 mRNA levels normalized to 18S rRNA (ΔΔCt) in compound treated cells or tissues compared to vehicle levels.

The subject of series [1] is CYP1A1 enzyme. Put plainly: EROD assay in HepG2 cells (cleavage of 7-ethoxyresorufin to resorufin). Format: cell-based, human. Conditions: 10 uM, 24 h. On the procedure:
(§1) HepG2 cells are seeded at between 1×10^4 and 2.5×10^4 cells/well in a 96-well microtitre plate. […] The formation of resorufin is quantified by fluorometry with a fluorescence plate reader. Fluorescence is determined at λex 570 nm and λem 590 nm. […] The remaining (i.e. all cells present at the beginning of analysis, since only supernatant is taken to assay EROD) live cells are subsequently utilized for the MIT cytotoxicity assay. […] The medium is carefully removed, then MIT formazan is solubilized by adding 200 μl of DMSO and subsequently mixed on a plate shaker. The absorbance is measured spectrophotometrically at 550 nm and background absorbance at 690 nm is subtracted.

Another series relates to HepG2 cells. Put plainly: MTT cytotoxicity assay in HepG2 cells. Particulars: HepG2 cells, MTT. In kind it is cell-based, human. As for the experimental part: as §1
(In general: Tetrazolium assays rely on reduction of a dye to a coloured formazan, in cell work by metabolically active cells.)

Series [2] has as its system CYP1A1 enzyme. Put plainly: EROD assay in human cultured sebocytes. Format: cell-based. Conditions: 10 uM, 24 h. On the procedure: (§2) Cells are seeded at between 1×10^4 and 2.5×10^4 cells/well in a 96-well microtitre plate. […] The formation of resorufin is quantified by fluorometry with a fluorescence plate reader. Fluorescence is determined at λex 570 nm and […]. The amount of resorufin is calculated from a standard curve generated using 0 to 1 μM resorufin in water at 34 log dilutions. The remaining (i.e. all cells present at the beginning of analysis, since only supernatant is taken to assay EROD) live cells are subsequently utilized for the MIT cytotoxicity assay. MIT is made up in serum-free medium at 5 mg/ml. then added to the cells giving a final concentration of 10% (0.5 mg/ml MIT final) then incubated for 2 h. The medium is carefully removed, then MTT formazan is solubilized by adding 200 μl of DMSO and subsequently mixed on a plate shaker. The absorbance is measured spectrophotometrically at 550 nm and background absorbance at 690 nm is subtracted. A standard curve generated using MTT formazan (dissolved in DMSO) from 0-200 μM (0, 2, 5, 10, 20, 50, 100, 200 μM) is used to calculate the final experimental values which are then expressed as (μmol resorufin/mol MIT formazan) or as fold-induction compared to solvent.

The subject of the next series is human sebocyte cells. Put plainly: MTT cytotoxicity assay in human cultured sebocytes. In kind it is cell-based. As for the experimental part:
as §2

Turning to `O=c1cc(-c2ccccc2)oc2ccc3ccccc3c12` [Compound D, 3-Phenyl-1H-benzo[f]chromen-1-one, reference compound], in the series with CYP1A1 mRNA, the “CYP1A1 mRNA fold change from vehicle” value is listed as 596 fold. The “% change vs. TCDD EROD (HepG2) at 10 uM” value in the series with CYP1A1 enzyme [1] came out at 19%. Further, the Toxicity threshold with HepG2 cells is greater than 50 µM; with human sebocyte cells, 30 µM. In the series on CYP1A1 enzyme [2], the “% change vs. TCDD EROD (Sebs) at 10 uM” value stood at 17%.

(Values after patent US20180185325A1, “12H-BENZO[b]XANTHEN-12-ONES, COMPOSITIONS CONTAINING, AND USES OF, SAME” (Thesan Pharmaceuticals, Inc., priority 2015, published 2018).)
